Legend:
[1] = tested on: cytoplasmic HMGB1 in MG-63/GFRα1 tumors; assay: Immunofluorescence of HMGB1 in xenograft tumors; assay type: in vivo, mouse; details: tumors of MG-63/GFRα1 cell grafted mice
Protocol: FIG. 5. GFRα1-mediated autophagy promotes chemoresistance and tumor growth in vivo. (a) BALB/c nude mice (n =40) were injected with MG-63 cells that were transfected with either control or GFRα1 expressing vector. Tumor volume was measured every 3 or 4 days. Data are shown as mean±SEM. ** p<0.05. (b) BALB/c nude mice (n=20) were injected with MG-63 cells that were transfected with either control or GFRα1 shRNA. Tumor volume was measured every 3 or 4 days. Data are shown as mean±SEM. ** p<0.05. (c) Tumors that were generated from mice injected with MG-63 cells containing GFRα1 expressing vector were directly injected with PBS, CQ, cisplatin, or cisplatin+CQ. Tumor volume was measured every 4 days. […] Right, quantitative analysis of percentage of cytoplasmic HMGB1-positive cells in HMGB1-positive tumors. […] Right, quantitative analysis of percentage of TUNEL-positive cells in HMGB1-positive tumors. […]
Immunohistochemistry. […] For immunofluorescence, immunohistochemistry of patient tissues and mouse tumors are incubated with the Alexa Fluor 488- and 647-conjugated secondary antibodies (Invitrogen), and nuclei were counterstained with DAPI (Sigma-Aldrich) Immunofluorescence was detected by confocal microscopy. […] Thus, marked plus (+) was considered to be positive immunoreactivity, while that minus (−) was considered to be negative immunoreactivity (not detected). […]

[2] = tested on: Src/AMPK signaling in MG-63 cells; assay: Immunoblot of Src/AMPK/mTOR signaling; assay type: cell-based, human; details: cisplatin 20 μM, 24 hr
Protocol: FIG. 4. GFRα1 regulates autophagy by Src/AMPK signaling in osteosarcoma cells. (a-b) Immunoblot analysis of osteosarcoma cell lysates with antibodies specific for GFRα1, p-Src, Src, p-AMPK, AMPK, p-mTOR, mTOR, p-p70 S6Kinase, Beclin 1, HMGB1, LC3, and β-actin. (a) MG-63 and cells were treated with cisplatin (20 μM) for 24 hr. (b) Control and GFRα1-deficient MG-63 cells were treated with cisplatin (20 μM) for 24 hr. (c-e) Immunoblot analysis of osteosarcoma cell lysates with antibodies specific for GFRα1, p-Src, Src, p-AMPK, AMPK, LC3, and β-actin. (c) Control and Src-deficient MG-63 cells were treated with cisplatin (20 μM) for 24 hr. (d) MG-63 cells were cultured in the presence or absence of PP1 (5 μM) and then treated with cisplatin (20 μM) for 24 hr. (e) MG-63 cells were cultured in the presence or absence of Compound C and then treated with cisplatin (20 μM) for 24 hr. (f) Cell viability of MG-63 cells after cisplatin treatment in the presence of PP1. MG-63 cells were cultured with DMSO or PP1 (2, 5 μM) and then treated with cisplatin (20 μM) for 24 hr. Cell viability was measured using the WST-1 assay. The values are represented as a mean±s.d.m. (n=3). ** denotes p<0.05 by t-test. (g) Cell viability of MG-63 cells after cisplatin treatment in the presence of Compound C. MG-63 cells were cultured with DMSO or Compound C (5, 10 μM) and then treated with cisplatin (20 μM) for 24 hr. Cell viability was measured using the WST-1 assay. The values are represented as a mean±s.d.m. (n=3). ** denotes p<0.05 by t-test.
(§1) Immunoblotting. Cells were washed with PBS and lysed in RIPA Buffer (Pierce, Rockford, Ill.). The protein content was determined using a dye-binding microassay (Bio-Rad, Hercules, Calif.), and 10-50 μg protein per lane was electrophoresed on 4-12% SDS polyacrylamide gels. Proteins were blotted onto Hybond ECL membranes (Amersham Pharmacia Biotech, Piscataway, N.J.). Two protein ladders were used for molecular weight determination (GenDEPOT, Barker, Tex.). The blotted proteins were detected using an enhanced chemiluminescence detection system (iNtRON, Seoul, Korea). Data were quantified and analyzed with Image-J software.

[3] = tested on: APE1 expression in osteosarcoma cells; assay: Immunoblot of APE1 expression after cisplatin; assay type: cell-based, human; details: different concentrations of cisplatin, 24 h
Protocol: FIG. 10. GFRα1-mediated chemoresistance of osteosarcoma cells is independent of APE and RET signaling. (a) Immunoblot analysis of MG-63 cell lysates with antibodies specific for APE, RET and β-actin. MG-63 and U-2 OS cells were treated with different concentrations of cisplatin for 24 h. The cell lysates of GDNF-treated MIA PaCa-2 were used as positive controls for APE and RET expression.
as §1

## N.N.[Cl][Pt][Cl] [cisplatin, Cis-Diamineplatinum(II) dichloride]
[1]
  HMGB1 expression localized in the cytoplasm: significant increase
[2]
  level of phosphorylated AMPK: increased
  level of phosphorylated S6K (P70-S6Kinase): decreased
  level of phosphorylated Src: increased
  level of phosphorylated mTOR: decreased
[3]
  level of APE1 expression: not affected

Reference: patent publication US20180171411A1, “GFRalpha1 AS A BIOMARKER FOR CISPLATIN-INDUCED CHEMORESISTANCE AND METASTASIS” (THE BOARD OF REGENTS OF THE UNIVERSITY OF TEXAS SYSTEM, priority 2015, published 2018)
